The subject of one series is submacular haemorrhage. The series is classed as in vivo, human. The procedure: A person with a history of wet age-related macular degeneration (AMD) in both eyes developed a sudden vision decrease in the right eye. The best corrected visual acuity (BCVA) on presentation was of 0.05. […] Haemorrhage seems also result in the RPE detachment at some points (Fig 1D, asterisk). Intravitreal dobesilate was administered in the right eye, using a standard protocol. After approval of our Institution Ethical Committee, the patient signed an informed consent form, which included a comprehensive description of dobesilate and the proposed procedure. Patient received an intravitreal solution of dobesilate (150µl) under sterile conditions in their right eye, following the International Guidelines for intravitreal injections (Aiello LP et al. Retina. 2004; 24 (5 Suppl):S3-S19). Dobesilate was administered as a 12.5% solution of diethylammonium 2.5-dihydroxybenzenesulfonate (etamsylate; dicynone® Sanofi-Aventis. Paris. France).
(§1) • Figure 1 Sequence of fundus photographs (A-D) and spectral-domain optical coherence tomography (SD-OCT) scans (D-F) of a patient with a moderate-sized submacular haemorrhage at baseline (A,D), and one (B,E) and two months (C,F) after a single intravitreal injection of dobesilate. Asterisk in D indicates retinal pigment epithelium (RPE) detachment. • Figure 2 Efficacy of intravitreal dobesilate injection to clear vitreous haemorrhage in a diabetic patient. A and C photographs were taken at presentation, and B and D after 3 days of treatment. […] Note in B the abnormal appearance of the pupil due to luxation of the lens. Arrow indicates paracentesis site.

A further series deals with vitreous haemorrhage. The series is classed as in vivo, human. The procedure: A 68 old-year type 2 diabetic man presented with intense vision loss in their right eye. […] Intraocular pressure was 50mmHg that was reduced to 14mmHg after a paracentesis procedure. After approval of the Institutional Ethics Committee, the patient signed an informed consent form, which included a comprehensive description of dobesilate and the proposed procedure. Patient received an intravitreal solution of dobesilate (150 µl) under sterile conditions, following the International Guidelines for intravitreal injections (Aiello LP et al. Retina. 2004; 24 (5 Suppl):S3-S19) in their right eye. Dobesilate was administered as a 12.5% solution of diethylammonium 2.5-dihydroxybenzenesulfonate (etamsylate, dicynone® Sanofi-Aventis. Paris. France).
as §1, with “Arrow indicates paracentesis site.” left out

Setting [1] is: person, right eye, intravitreal 150µl of 12.5% solution, along two months follow-up.

Regarding `O=S(=O)(O)c1cc(O)ccc1O` [dobesilate, diethylammonium 2.5-dihydroxybenzenesulfonate], the ocular side effects entry with submacular haemorrhage (human, in vivo) is “No ocular side effects were observed”. Moreover, in the series on submacular haemorrhage (setting [1]), the “SD-OCT scans: retinal architecture / RPE detachment” value is “progressive normalization of the retinal architecture with disappearance of RPE detachment” and the “haemorrhage signs (fundus)” value is on record as “gradually disappeared”. Further, in the series on submacular haemorrhage (person, right eye, intravitreal 150µl of 12.5% solution, two months follow-up, BCVA on presentation 0.05), the “final BCVA (best corrected visual acuity)” value is reported as 0.50. In addition, the Intraocular pressure result with vitreous haemorrhage (after treatment, pressure had been reduced from 50mmHg to 14mmHg by paracentesis before injection) is recorded as “maintained at normal level”. Moreover, in the series with vitreous haemorrhage (human, in vivo), the ocular side effects entry is given as “No ocular side effects were observed”.
